Results: patent US20240344145A1, “PHARMACOGENOMICS SCORE TO MAKE DECISIONS ON THERAPY AUGMENTATION IN AML” (University of Florida Research Foundation, Incorporated, priority 2021, published 2024)

Tested on: ara-C metabolic pathway genes
Assay: Association of ara-C pathway SNP genotypes with MRD1, EFS and OS in AML02 (logistic regression and Cox models; also within LDAC and HDAC arms)
Design: species or system human
Conditions: within arm of AML02
From the text: Genomic DNA from patients enrolled in the multi-site St. Jude AML02 trial was genotyped for 155 SNPs in 16 genes of relevance to ara-C pharmacology using sequenom iPlex platform that uses MALDI-TOF based chemistry at University of Minnesota, Biomedical Genomics Center. SNPs were selected based on previously reported studies. For SNPs lacking literature on genetic variation, SNPs were selected to capture LD blocks (European and African ancestry) on a gene. Of 155 SNPs, 1 SNP was excluded due to low call rate (<90%), 47 SNPs were excluded due to minimum allele frequency of less than 5%, 11 SNPs were excluded due to high LD (r^2>0.9) with other SNPs; two SNPs were excluded because of deviation from Hardy-Weinberg equilibrium. Genotype for the COG-AAML0531 cohort for the selected SNPs was obtained using sequenom platform or TaqMan genotyping assays, and for a few SNPs was extracted from the data available on Illumina 2.5 Omni array. Genotype calls from multiple platforms were confirmed across multiple samples randomly collected from the cohort.
SNP genotype groups in three different modes of inheritance (additive, dominant, and recessive) were tested for association with MRD1 using logistic regression models. Odds ratio (OR) and 95% confidence interval (CI) were calculated for each test. SNPs with association P-value<0.05 were considered significant. Cox-proportional hazard models were used to evaluate association of genotype groups with EFS or OS. Hazard ratio (HR) and 95% CI were calculated for each test. p-value<0.05 was considered statistically significant. Given initial risk group assignments are well-established prognostic factors associated with outcome, outcome association analysis of SNPs with and without adjusting for risk group was also performed to identify SNPs that are associated with outcome independent of risk group.
SNPs with p<0.15 in risk-adjusted univariate evaluation with clinical endpoints (MRD1, EFS, and OS) were tested for all possible combinations with a maximum of three SNPs per model in multivariable logistic regression models for association with MRD1 and Cox-proportional hazard models for association with EFS and OS. Analysis for up to 3 SNP combinations was restricted due to computational challenges as increasing the maximum number of SNPs per model drastically increases the number of models as 1000 permutations were run for each model. Models were ordered according to their Bayesian Information Criterion (BIC) and weight in favor of each model. One thousand permutation tests were performed for each model to determine statistical significance. The six unique SNPs from the most significant models for EFS and MRD1 were included in the development of the ACS10 score as described in the results section.
The multicenter AML02 clinical trial randomly assigned subjects to receive low dose ara-C (LDAC: 100 mg/m^2; n=91 patients) or high dose ara-C(HDAC: 3 g/m^2; n=75 patients) in combination with daunorubicin and etoposide as the first course of chemotherapy as described above in patient cohort section. Thus, the association of SNPs with outcome within each arm separately was also explored (Table 5).

[1] = rs4742 (DCTD, WT T, VAR C), MOI R
[2] = rs5841 (NME4, WT C, VAR T), MOI D
[3] = rs324148 (SLC29A1, WT C, VAR T), MOI A
[4] = rs407983 (NME4, WT G, VAR C), MOI A
[5] = rs507964 (SLC29A1, WT C, VAR A), MOI R
[6] = rs580032 (CDA, WT T, VAR G), MOI D
[7] = rs602950 (CDA, WT T, VAR C), MOI A
[8] = rs747199 (SLC29A1, WT C, VAR G), MOI D
[9] = rs818196 (CDA, WT G, VAR C), MOI D
[10] = rs1048977 (CDA, WT C, VAR T), MOI D
[11] = rs1138729 (RRM2, WT A, VAR G), MOI D
[12] = rs2072671 (CDA, WT A, VAR C), MOI A
[13] = rs2396243 (SLC29A1, WT G, VAR A), MOI D
[14] = rs3088062 (CMPK1, WT T, VAR C), MOI A
[15] = rs3743162 (SLC28A1, WT C, VAR T), MOI D
[16] = rs3829540 (NME3, WT G, VAR A), MOI D
[17] = rs3925058 (CMPK1, WT T, VAR C), MOI D
[18] = rs4247411 (SLC28A1, WT C, VAR T), MOI D
[19] = rs4271567 (SLC28A1, WT T, VAR A), MOI R
[20] = rs4643786 (DCK, WT T, VAR C), MOI R

Nc1ccn([C@@H]2O[C@H](CO)[C@@H](O)[C@@H]2O)c(=O)n1 [LDAC, cytarabine] was tested, and the “EFS HR (95% CI)” value [1] was 1.49 (0.93-2.4), the “MRD1 OR (95% CI)” value [1] was 1.19 (0.57-2.46) and the “OS HR (95% CI)” value [1] was 1.96 (1.2-3.21). For the same compound, the “EFS HR (95% CI)” value [2] was 0.94 (0.68-1.31), the “MRD1 OR (95% CI)” value [2] was 0.7 (0.45-1.08) and the “OS HR (95% CI)” value [2] was 0.86 (0.58-1.27). For the same compound, the “EFS HR (95% CI)” value [3] was 1.35 (0.85-2.13), the “MRD1 OR (95% CI)” value [3] was 0.37 (0.17-0.78) and the “OS HR (95% CI)” value [3] was 1.14 (0.64-2.04). The “EFS HR (95% CI)” value [4] was 1.36 (0.88-2.09), the “MRD1 OR (95% CI)” value [4] was 0.92 (0.53-1.59) and the “OS HR (95% CI)” value [4] was 1.73 (1-2.98). The “EFS HR (95% CI)” value [5] was 1.54 (1.04-2.29), the “MRD1 OR (95% CI)” value [5] was 1.41 (0.76-2.62) and the “OS HR (95% CI)” value [5] was 1.1 (0.64-1.88). The “EFS HR (95% CI)” value [6] was 0.86 (0.51-1.44), the “MRD1 OR (95% CI)” value [6] was 1.16 (0.63-2.13) and the “OS HR (95% CI)” value [6] was 1.12 (0.65-1.9). For the same compound, the “EFS HR (95% CI)” value [7] was 0.56 (0.33-0.96), the “MRD1 OR (95% CI)” value [7] was 0.57 (0.3-1.08) and the “OS HR (95% CI)” value [7] was 0.68 (0.36-1.26). For the same compound, the “EFS HR (95% CI)” value [8] was 0.88 (0.61-1.28), the “MRD1 OR (95% CI)” value [8] was 1.18 (0.75-1.88) and the “OS HR (95% CI)” value [8] was 0.55 (0.3-1). For the same compound, the “EFS HR (95% CI)” value [9] was 1.18 (0.85-1.64), the “MRD1 OR (95% CI)” value [9] was 1.28 (0.82-2) and the “OS HR (95% CI)” value [9] was 1.09 (0.73-1.62). For the same compound, the “EFS HR (95% CI)” value [10] was 1.48 (1.06-2.08), the “MRD1 OR (95% CI)” value [10] was 1.21 (0.79-1.85) and the “OS HR (95% CI)” value [10] was 1.14 (0.77-1.69). For the same compound, the “EFS HR (95% CI)” value [11] was 1.55 (1.11-2.18), the “MRD1 OR (95% CI)” value [11] was 1.19 (0.73-1.94) and the “OS HR (95% CI)” value [11] was 1.41 (0.93-2.14). For the same compound, the “EFS HR (95% CI)” value [12] was 0.58 (0.35-0.95), the “MRD1 OR (95% CI)” value [12] was 0.57 (0.31-1.04) and the “OS HR (95% CI)” value [12] was 0.68 (0.38-1.23). The “EFS HR (95% CI)” value [13] was 1.56 (1.12-2.16), the “MRD1 OR (95% CI)” value [13] was 0.92 (0.59-1.43) and the “OS HR (95% CI)” value [13] was 1.59 (1.07-2.36). The “EFS HR (95% CI)” value [14] was 1.66 (0.99-2.8), the “MRD1 OR (95% CI)” value [14] was 2.37 (1.06-5.28) and the “OS HR (95% CI)” value [14] was 1.63 (0.89-3.01). The “EFS HR (95% CI)” value [15] was 0.82 (0.56-1.19), the “MRD1 OR (95% CI)” value [15] was 0.77 (0.48-1.23) and the “OS HR (95% CI)” value [15] was 1.07 (0.71-1.64). For the same compound, the “EFS HR (95% CI)” value [16] was 1.23 (0.89-1.71), the “MRD1 OR (95% CI)” value [16] was 1.15 (0.73-1.8) and the “OS HR (95% CI)” value [16] was 1.22 (0.82-1.82). The “EFS HR (95% CI)” value [17] was 0.7 (0.51-0.97), the “MRD1 OR (95% CI)” value [17] was 0.6 (0.38-0.95) and the “OS HR (95% CI)” value [17] was 0.76 (0.51-1.13). The “EFS HR (95% CI)” value [18] was 1.05 (0.73-1.51), the “MRD1 OR (95% CI)” value [18] was 0.94 (0.59-1.51) and the “OS HR (95% CI)” value [18] was 1.03 (0.67-1.59). The “EFS HR (95% CI)” value [19] was 1 (0.69-1.46), the “MRD1 OR (95% CI)” value [19] was 0.76 (0.46-1.28) and the “OS HR (95% CI)” value [19] was 1.12 (0.72-1.74). The “EFS HR (95% CI)” value [20] was 2.15 (1.28-3.64), the “MRD1 OR (95% CI)” value [20] was 2.34 (0.76-7.15) and the “OS HR (95% CI)” value [20] was 1.7 (0.92-3.11).
